US20250296909A1, “NOVEL BENZENE DERIVATIVE AND IMMUNOSUPPRESSION-RELATED USE THEREOF” (PROVIBIO CO., LTD., priority 2021, published 2025)

Key:
[1] = test system: T lymphocyte cell line Jurkat E6-1; test: Cytotoxicity experiment (CCK-8, relative cell survival); type: cell-based; settings: 24 hours, untreated cells = 100%
Procedure: To evaluate the cytotoxicity of the compound according to the present invention, the following experiment was conducted.
The T lymphocyte cell line Jurkat E6-1, purchased from the Korean Cell Line Bank, was cultured in RPMI-1640 medium comprising 10% FBS, 100 U/mL penicillin, and 100 μg/mL streptomycin. After culturing, the cells were harvested and centrifuged at 1,300 rpm for 5 minutes. After removal of the supernatant, the cells were resuspended in the same medium at a concentration of approximately 2.2×10^5 cells/mL, and 90 μL of the cell suspension was distributed per well into a 96-well plate (Costar 96 well cell culture plate, Corning). After treating 10 μL of each compound at different concentrations onto the respective wells of the plate, it was cultured for 24 hours at 37° C. in a 5% CO2 incubator. Subsequently, 10 μL of CCK-8 was added to each well, and it was cultured again for 2 hours at 37° C. in a 5% CO2 incubator. Absorbance was then measured at 450 nm to determine the relative cell survival rate compared to untreated cells, as shown in Table 4.
The values listed in Table 4 represent the relative cell survival rates in the groups treated with each compound at different concentrations, with the cell survival rate of untreated cells set as 100%.

spleen T cells [2] = test: T cell proliferation inhibition (CFSE, FACS), CD3/CD28-activated spleen T cells; type: cell-based, C57BL/6 mice; settings: Table 2, 3 days, relative to CD3/CD28+DMSO; for inhibition at 10 µM / inhibition at 30 µM / inhibition at 50 µM: Mus musculus, T-cell, 72 h, read-out: Proliferation inhibition rate (%)
Procedure: To investigate whether the compounds obtained in the Preparation Example have an inhibitory effect on T cell proliferation, the T cell proliferation was determined ex vivo using the fluorescent dye carboxyfluorescein diacetate succinimidyl ester (CFSE), which binds to intracellular molecules by covalent bonds.
Spleens were harvested and minced from C57BL/6 mice at 7 weeks of age, and then single cells were isolated using a strainer (40 μm pore size, SPL). Red blood cells were removed using ACK (Ammonium-Chloride-Potassium) lysis buffer to isolate only leukocytes. Subsequently, CD90.2 microbeads (130-121-278, Miltenyi Biotech.) were added, and subjected to react at 4° C. for 20 minutes. After that, spleen T cells were isolated using a MACS Magnetic Stand and LS column. The isolated T cells from the spleen were resuspended in 1 mL of Free media (RPMI-1640+200 U/mL penicillin+200 μg/mL streptomycin), followed by the addition of 0.3 μL of CFSE (10 mM), and reacted at 37° C. for 5 minutes. Subsequently, 10 mL of Free media was added to stop the reaction, and the cells were centrifuged to obtain the cell pellet. RPMI 1640 medium containing 10% FBS, 100 U/mL penicillin, and 100 μg/mL streptomycin was added to suspend the cells, and 2×10^5 cells per well were seeded into a 96-well plate and T cells were activated by treatment with CD3 and CD28 antibodies (each at 0.5 μg/mL).
The compound diluted in DMSO was treated in triplicate at concentrations of 10 μM, 30 μM, and 50 μM, respectively. After incubation at 37° C. with 5% CO2 for 3 days, cell proliferation levels were determined using a FACS Canto machine.
In the FACS graph of FIG. 1, the y-axis represents the quantity (number) of cells, while the x-axis represents the fluorescence level of the cells. […] This reduction in CFSE fluorescence results in a leftward shift along the x-axis in the graph. This indicates cell proliferation.
To collectively indicate the proliferation inhibition rate for the experimental results, the relative value of the proliferation amount after compound administration to the proliferation amount after CD3/CD28+DMSO administration was calculated. Subsequently, it was converted into an inhibition amount and expressed as a percentage, thereby determining the proliferation inhibition rate. Specifically, the proliferation inhibition rate was calculated as follows: […]

spleen T cells [3] = test: Cytokine secretion by anti-CD3/CD28-activated T cells (Cytometric Bead Array); type: cell-based, C57BL/6 mice; settings: 30 μM; for secretion of IL-2: 24 hours after treatment, FIG. 3; for secretion of IFN-γ / secretion of IL-17A / secretion of TNF-α: 72 hours after treatment
Procedure: To confirm the effect of compounds of the present invention on the secretion of cytokines by T cells, the following experiment was conducted.
Spleens were harvested and minced from C57BL/6 mice at 7 weeks of age, and single cells were isolated using a strainer (40 μm pore size, SPL). Red blood cells were removed using ACK (Ammonium-Chloride-Potassium) lysis buffer to isolate only leukocytes. These were then reacted with 10 v/v % CD90.2 microbeads (130-121-278, Miltenyi Biotech.) at 4° C. for 20 minutes, resulting in the isolation of spleen T cells from magnetic-based purification. The T cells were cultured in a 96-well plate at an amount of 2×10^5 cells/well. For T cell activation, each well was treated with anti-CD3/CD28 antibodies at a concentration of 1 μg/mL. Subsequently, Vehicle (DMSO) and compounds (Compound 14, Compound 19, Compound 26, Compound 31, Compound 35, Compound 40, Compound 41, Compound 56, Compound 69, Compound 75) at a concentration of 30 μM were treated in each well, and it was cultured at 37° C. in a 5% CO2 incubator. After 24 and 72 hours, the T cell culture medium was taken, and centrifugation was performed at 13,000 rpm for 10 minutes to obtain the supernatant.
To measure the concentration of cytokines present in the T cell culture medium, Mouse Th1/Th2/Th17 Cytokine CBA Kit (Cytometric Bead Array kit) 560485 from BD Science was utilized for flow cytometry analysis. The secretion levels of IL-2 at 24 hours after each drug treatment, and IFN-γ, TNF-α, and IL-17A at 72 hours were measured after each drug treatment.

| SMILES | Relative cell survival rate (%) ([1]; 10 μM) | Relative cell survival rate (%) ([1]; 20 μM) | Relative cell survival rate (%) ([1]; 30 μM) | Relative cell survival rate (%) ([1]; 50 μM) | Proliferation inhibition rate (%) (spleen T cells [2]; 10 μM) | Proliferation inhibition rate (%) (spleen T cells [2]; 30 μM) | Proliferation inhibition rate (%) (spleen T cells [2]; 50 μM) | secretion of IL-2 (spleen T cells [3]) | secretion of IFN-γ (spleen T cells [3]) | secretion of IL-17A (spleen T cells [3]) | secretion of TNF-α (spleen T cells [3]) | inhibition at 10 µM (spleen T cells [2]; 10 μM) | inhibition at 30 µM (spleen T cells [2]; 30 μM) | inhibition at 50 µM (spleen T cells [2]; 50 μM) |
| --- | --- | --- | --- | --- | --- | --- | --- | --- | --- | --- | --- | --- | --- | --- |
| CCCCCCCCCCCCNC(=O)CNC(=O)c1ccccc1Cl [Compound 56] | 92% | 91% | 89% | 86% | 26% | 50% | 62% | significant decrease | significant decrease | significant decrease | significant decrease |  |  |  |
| CCCCCCCCCCCCNC(=O)c1cccnc1Oc1ccc(Cl)cc1 [Compound 26] | 101% | 97% | 85% | 82% | 73% | 100% | 100% | significant decrease | significant decrease | significant decrease | significant decrease |  |  |  |
| CCCCCCCCCCCCNS(=O)(=O)c1ccccc1Br [Compound 35] | 97% | 89% | 87% | 86% | 85% | 92% | 93% | significant decrease | significant decrease | significant decrease | significant decrease |  |  |  |
| CCCCCCCCCCCCNC(=O)c1c(Cl)cccc1Cl [Compound 39] | 89% | 102% | 78% | 79% |  |  |  |  |  |  |  | 7% | 61% | 89% |
| CCCCCCCCCCCCNC(=O)c1cccnc1 [Compound 19] | 94% | 87% | 82% | 83% |  |  |  | significant decrease | significant decrease | significant decrease | significant decrease | 19% | 99% | 100% |
| C=Cc1ccccc1C(=O)NCCCCCCCCCCCC [Compound 57] | 108% | 108% | 104% | 101% |  |  |  |  |  |  |  | 93% | 100% | 100% |
| CCCCCCCCCCCCNC(=O)c1ccccc1Nc1cccc(C)c1C [Compound 51] | 99% | 94% | 92% | 90% |  |  |  |  |  |  |  | 100% | 100% | 100% |
| CCCCCCCCCCCCNC(=O)c1c(Cl)ccnc1Cl [Compound 30] | 120% | 109% | 108% | 106% |  |  |  |  |  |  |  | 16% | 41% | 55% |
| CCCCCCCCCCCC(=O)NCc1ccccc1Br [Compound 43] | 101% | 104% | 108% | 108% |  |  |  |  |  |  |  | 27% | 50% | 72% |
| CCCCCCCCCCCCNC(=O)c1cnccc1N [Compound 71] | 101% | 94% | 92% | 88% |  |  |  |  |  |  |  | 100% | 100% | 100% |
| CCCCCCCCCCCCNC(=O)c1ccccc1Oc1ccccc1 [Compound 61] | 96% | 94% | 76% | 74% |  |  |  |  |  |  |  | 16% | 86% | 98% |
| CCCCCCCCCCCCNC(=O)c1ccccc1C(F)(F)F [Compound 38] | 90% | 91% | 89% | 89% | 40% | 73% | 85% |  |  |  |  |  |  |  |
| CCCCCCCCCCCCNC(=O)c1ccncc1N [Compound 68] | 92% | 91% | 88% | 82% |  |  |  |  |  |  |  | 57% | 67% | 100% |
| CCCCCCCCCCCCNC(=O)c1ccccc1[N+](=O)[O-] [Compound 50] | 74% | 75% | 70% | 68% | 0% | 66% | 97% |  |  |  |  |  |  |  |
| CCCCCCCCNC(=O)c1cccnc1N [Compound 74] | 101% | 84% | 81% | 77% |  |  |  |  |  |  |  | 66% | 91% | 95% |
| CCCCCCCCCCCCNC(=O)c1ccccc1NC [Compound 65] | 87% | 84% | 86% | 77% |  |  |  |  |  |  |  | 39% | 43% | 77% |
